Where only a bound is given, the exact number is not on record here.

14 molecules from patent publication US12448363B2, “Kinase inhibitors” (Vidya Therapeutics, Inc., priority 2020, dated 2025) can be followed below.

The target of data set [1] is BTK (Homo sapiens, UniProt Q06187). The data set is described as follows: Assay to determine BTK inactivation rate in human whole blood (ELISA of unoccupied BTK). The following applies: 37° C., 5, 15, 30, 60 minutes; for kinact/KI: read-out: BTK hWB Kinact/Ki. On the set-up: Human whole blood is obtained from StemExpress; tissue StemExpress; host or cells: human whole blood. The format is cell-based. As for the experimental part: Human Whole Blood Compound Treatment and Lysis
Human whole blood is obtained from StemExpress and kept at ambient temperature until the time of the experiment. […] This is prepared fresh each experimental day. […] Compounds are reconstituted to stocks of 10 mM and are diluted in two-fold serial dilutions to generate an 8-point curve in DMSO, with the last point being DMSO only, creating a 100× dilution series. A working 10× dilution series is created using 1.0 μL of the prepared DMSO titration, 100×, into […] 1×PBS in order to keep the DMSO constant. The human whole blood is added in the volume of 225 μL per well in a new 96w v-bottom plate, where one column of eight wells is sufficient for testing one compound. For compound treatment, 25 μL of 10× dilution series in PBS is added to the 225 μL whole blood, followed by briefly pipetting up and down twice. The plates are covered with lids and incubated at 37° C. for 5, 15, 30, 60 minutes. At each timepoint, 30 μL of treated blood is pulled from each column and added to preloaded collection plates that contain 30 μL of supplemented lysis buffer and mixed briefly. The collected and lysed samples shake on rotator for 60 minutes at room temperature. These samples are used fresh for detection via ELISA, and remaining sample is frozen at −80° C. if a repeat is necessary.
ELISA: Determining Amount of Unoccupied BTK
All streptavidin pre-coated plates (R&D Systems, #CP004) are brought to room temperature while samples are lysing. Assay Buffer 1, 1×PBS+0.05% Tween 20+1% BSA is prepared and stored at 4° C. when not in use. Using this Assay Buffer, assay buffer+1× protease/phosphatase inhibitor cocktail (PICs) is prepared in the amount needed for all samples. Assay Buffer+PICs in the volume of 90 μL/well is added to the ELISA plate. Lysed blood sample (10 μL) is added to the ELISA plate. BTK recombinant protein dilutions are prepared in assay buffer+PICS for use as a μM). The standard is loaded into the ELISA plate at 100 μL/well, in duplicate. These samples and standards remain in the plate, sealed, overnight at 4° C. The following day, the plate is washed four times with 1× Wash Buffer (1×PBS+0.05% Tween 20) using a plate washer. The plate is inverted to expel all fluid each time and blotted on clean paper towels to remove remaining liquid. Assay Buffer 2 is prepared (1×PBS+0.05% Tween 20+0.05% BSA) and kept at 4° C. when not in use. […] Diluted a-BTK antibody is added at 100 μl/well. The plate is covered with adhesive film and incubated for 90 minutes at room temperature. The plate is washed four times with 1× Wash Buffer (1×PBS+0.05% Tween 20) using a plate washer. The plate is inverted to expel all fluid each time and blotted on clean paper towels to remove remaining liquid. […] The diluted antibody is added at 100 μl/well. The plate is covered with adhesive film and incubated for one hour at room temperature. The plate is washed four times with 1× Wash Buffer using a plate washer. The plate is inverted to expel all fluid each time and blotted on clean paper towels to remove remaining liquid. […] The plate is incubated at room temperature in the dark for −5-10 minutes. The reaction is stopped by adding 50 μl/well 2N sulfuric acid (H2SO4) (R&D Systems, #DY994). The plate is read in a plate reader at the wavelengths […] and 570 nm (correction wavelength). Using Graphpad Prism, an XY table+graph is created, listing 0-60 minutes as X axis and concentration as Y axis. A One Phase Decay model fit is applied to the data. Checking Results table, the K values are obtained and new XY table+graph are created. Concentration is assigned to the X axis and K values from first analysis are entered. The Michaelis-Menten equation is applied to the data.
(In an ELISA, binding on a coated surface is turned into a signal by an enzyme label.)

A short description of data set [2]: Plasma and total brain concentrations at 1 h post a single oral administration to female C57BL/6 mice. The format is in vivo. The following applies: mouse, 1 h post single oral 10 mg/kg, LC-MS/MS, read-out: Brain:plasma ratio. As for the experimental part: Determination of Plasma and Total Brain Concentrations at 1 h Post a Single Oral Administration of Test Compound to Female C57BL/6 Mice
The appropriate amount of test article was dissolved 10% dimethylacetamide (DMA)/90% (20% hydroxypropyl-b-cyclodextrin (HP-β-CD) w/v in water to obtain a final concentration of 1 mg/mL for oral dosing. Sonication, vortex, and homogenization was used as needed. Three female C57BL/6 mice aged 7-9 weeks (20-30 grams) were dosed by oral gavage 10 mg/kg solution of the test article.
Concentrations of representative test compounds in the plasma and brain samples (using plasma and brain homogenate standard curve for all samples appropriately) were analyzed using LC-MS/MS. With respect to the brain:plasma ratio, Table 11 lists the results as follows: • “A” denotes a ratio >0.5; • “B” denotes a ratio between 0.1 and 0.5; and • “C” denotes a ratio <0.1.

BTK, sequence (Q06187 whole entry): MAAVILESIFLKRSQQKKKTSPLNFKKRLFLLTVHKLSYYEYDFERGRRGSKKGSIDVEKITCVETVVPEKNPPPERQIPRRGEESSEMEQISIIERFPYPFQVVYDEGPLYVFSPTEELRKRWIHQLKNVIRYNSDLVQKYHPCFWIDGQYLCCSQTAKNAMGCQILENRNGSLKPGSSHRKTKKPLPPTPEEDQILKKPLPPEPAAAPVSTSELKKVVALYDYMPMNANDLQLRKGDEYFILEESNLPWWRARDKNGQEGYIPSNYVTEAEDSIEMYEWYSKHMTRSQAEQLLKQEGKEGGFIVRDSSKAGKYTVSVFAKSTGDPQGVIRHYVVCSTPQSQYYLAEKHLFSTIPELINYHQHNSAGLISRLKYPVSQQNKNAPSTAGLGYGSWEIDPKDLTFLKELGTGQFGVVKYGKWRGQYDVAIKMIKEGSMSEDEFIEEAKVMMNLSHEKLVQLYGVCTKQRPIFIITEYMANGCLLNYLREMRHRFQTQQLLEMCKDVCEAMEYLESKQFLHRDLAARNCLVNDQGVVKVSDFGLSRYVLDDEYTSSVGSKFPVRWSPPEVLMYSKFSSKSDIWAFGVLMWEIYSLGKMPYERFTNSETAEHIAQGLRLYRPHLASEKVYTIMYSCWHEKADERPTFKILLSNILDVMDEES

Turning to `C=CC(=O)N1CCc2c(-c3c(F)cc(C(N)=O)c4[nH]c(C)c(Cl)c34)cccc2C1C` (racemic) [Compound 22a, 4-(2-acryloyl-1-methyl-1,2,3,4-tetrahydroisoquinolin-5-yl)-3-chloro-5-fluoro-2-methyl-1H-indole-7-carboxamide], the kinact/KI in data set [1] was in the range of 1670 to 16700 M⁻¹ s⁻¹. Moreover, the Kp at 1 h in data set [2] is 0.1 to 0.5.
`C=CC(=O)N1CCC2CCN(c3c(F)cc(C(N)=O)c4[nH]c(C)c(Cl)c34)CC21` (racemic) [Compound 29, 4-(1-acryloyloctahydro-6H-pyrrolo[2,3-c]pyridin-6-yl)-3-chloro-5-fluoro-2-methyl-1H-indole-7-carboxamide]: the kinact/KI in data set [1] is 1670 to 16700 M⁻¹ s⁻¹. Also, the Kp at 1 h in data set [2] lay within 0.1 to 0.5.
With `C=CC(=O)N1CCc2c(cccc2-c2c(F)cc(C(N)=O)c3[nH]c(C)c(Cl)c23)C1` (single isomer, unassigned) [Compound 20b], in data set [1], the kinact/KI is 1670 to 16700 M⁻¹ s⁻¹. For the same molecule, the Kp at 1 h in data set [2] lay within 0.1 to 0.5.
The corresponding values for `C=CC(=O)N1CCC2CCN(c3c(F)cc(C(N)=O)c4[nH]c(C)c(Cl)c34)CC21` (single isomer, unassigned) [Compound 29a, 4-(1-acryloyloctahydro-6H-pyrrolo[2,3-c]pyridin-6-yl)-3-chloro-5-fluoro-2-methyl-1H-indole-7-carboxamide] are less than 1670 M⁻¹ s⁻¹ and 0.1 to 0.5.
On to `C=CC(=O)N1CCC2CCN(c3c(F)cc(C(N)=O)c4[nH]c(C)c(C)c34)CC21` (single isomer, unassigned) [Compound 32b, 4-(1-acryloyloctahydro-6H-pyrrolo[2,3-c]pyridin-6-yl)-5-fluoro-2,3-dimethyl-1H-indole-7-carboxamide], for which, in data set [1], the “BTK hWB Kinact/Ki” value was “C (a Kinact/Ki<1×10^−4 nM^−1 min^−1)”. The Kp at 1 h in data set [2] was less than 0.1.
For the molecule `C=CC(=O)N1CCC=C(c2c(F)cc(C(N)=O)c3[nH]c(C)c(Cl)c23)C1` [Compound 1, 4-(1-acryloyl-1,2,5,6-tetrahydropyridin-3-yl)-3-chloro-5-fluoro-2-methyl-1H-indole-7-carboxamide], the kinact/KI in data set [1] is greater than 16700 M⁻¹ s⁻¹. In addition, in data set [2], the Kp at 1 h was less than 0.1.
Regarding `C=CC(=O)N1CCC[C@@H](c2c(F)cc(C(N)=O)c3[nH]c(C)c(Cl)c23)C1` [Compound 2a, (S)-4-(1-acryloylpiperidin-3-yl)-3-chloro-5-fluoro-2-methyl-1H-indole-7-carboxamide], the kinact/KI in data set [1] is greater than 16700 M⁻¹ s⁻¹. The Kp at 1 h in data set [2] was in the range of 0.1 to 0.5.
The like results for `C=CC(=O)N1CCC[C@H](c2c(F)c(F)c(C(N)=O)c3[nH]c(C)c(F)c23)C1` [Compound 6a, (R)-4-(1-acryloylpiperidin-3-yl)-3,5,6-trifluoro-2-methyl-1H-indole-7-carboxamide] were, in that order, greater than 16700 M⁻¹ s⁻¹ and 0.1 to 0.5.
As for `C=CC(=O)N1CCC[C@@H](c2c(F)c(F)c(C(N)=O)c3[nH]c(C)c(F)c23)C1` [Compound 6b, (S)-4-(1-acryloylpiperidin-3-yl)-3,5,6-trifluoro-2-methyl-1H-indole-7-carboxamide], the kinact/KI in data set [1] is greater than 16700 M⁻¹ s⁻¹. Besides, the Kp at 1 h in data set [2] was in the range of 0.1 to 0.5.
Take `C=CC(=O)N1CCC[C@@H](c2c(F)c(F)c(C(N)=O)c3[nH]c(C)c(Cl)c23)C1` [Compound 16, (S)-4-(1-acryloylpiperidin-3-yl)-3-chloro-5,6-difluoro-2-methyl-1H-indole-7-carboxamide]: in data set [1], the kinact/KI is greater than 16700 M⁻¹ s⁻¹. The Kp at 1 h in data set [2] was 0.1 to 0.5.
The like results for `CC#CC(=O)N[C@H]1C[C@@H](F)CN(c2c(F)cc(C(N)=O)c3[nH]c(C)c(Cl)c23)C1` [Compound 27, 4-((3S,5R)-3-(but-2-ynamido)-5-fluoropiperidin-1-yl)-3-chloro-5-fluoro-2-methyl-1H-indole-7-carboxamide] were, in that order, 1670 to 16700 M⁻¹ s⁻¹ and 0.1 to 0.5.
For the molecule `CC#CC(=O)N[C@H]1C[C@@H](F)CN(c2c(F)cc(C(N)=O)c3[nH]c(C)c(C)c23)C1` [Compound 33, 4-((3S,5R)-3-(but-2-ynamido)-5-fluoropiperidin-1-yl)-5-fluoro-2,3-dimethyl-1H-indole-7-carboxamide], in data set [1], the kinact/KI is greater than 16700 M⁻¹ s⁻¹. In data set [2], the Kp at 1 h was less than 0.1.
The corresponding values for `CC#CC(=O)N[C@H]1C[C@H](F)CN(c2c(F)cc(C(N)=O)c3[nH]c(C)c(C)c23)C1` [Compound 35, 4-((3S,5S)-3-(but-2-ynamido)-5-fluoropiperidin-1-yl)-5-fluoro-2,3-dimethyl-1H-indole-7-carboxamide] are greater than 16700 M⁻¹ s⁻¹ and less than 0.1.
For the molecule `CC#CC(=O)N1CCCC2CN(c3c(F)cc(C(N)=O)c4[nH]c(C)c(Cl)c34)CC21` (stereo not shown) [Compound 40, 4-(1-(but-2-ynoyl)octahydro-6H-pyrrolo[3,4-b]pyridin-6-yl)-3-chloro-5-fluoro-2-methyl-1H-indole-7-carboxamide], the kinact/KI in data set [1] was less than 1670 M⁻¹ s⁻¹. Moreover, the Kp at 1 h in data set [2] is greater than 0.5.
